pIC50: −log10 of the molar value.
Tested on: 422866-222-R5-J1-PDC spheroids with HUVEC/MSC, viability
Assay: Anticancer human tumor 422866-222-R5-J1-PDC patient-derived pancreatic adenocarcinoma cell line growth inhibition [GQUAD]
Conditions: for pIC50: curve of first compound; for viability, T/C: stronger effect = lower value
Source text: DNA G-quadruplex Stabilizer Agents in Combinations in Complex Spheroids
A high-throughput screen of multi-cell type tumor spheroids was designed to identify active combinations of DNA G-quadruplex stabilizer agents and targeted small molecules. Complex spheroids include a stromal component modeled by human endothelial cells (HUVEC) and fibroblasts modeled by human mesenchymal stem cells (MSCs). The concentration ranges selected for each drug and investigational agent were based upon clinically achievable concentrations if the clinical Cmax of the agent was known.
Compounds. The drugs and investigational agents: pidnarulex (CX-5461; NSC782164), APTO-253 (NSC789042), BRACO-19 (NSC847499), peposertib (NSC802822), ceralasertib (NSC780249), elimusertib (NSC800525), camonsertib (NSC841442), AZD-1390 (NSC803789), olaparib (NSC753686), talazoparib (NSC767125), ART-558 (NSC835418), sotorasib (NSC818433), MRTX-1133 (NSC836407), SN-38 (NSC673596), topotecan (NSC609699), etoposide (NSC141540), doxorubicin (NSC123127), gemcitabine (NSC613327), 5-fluorouracil (NSC19893), paclitaxel (NSC125973), vemurafenib (NSC761431), panobinostat (NSC761190), R-306465 (JNJ-16241199; NSC773264), adavosertib (NSC754352), TP-3654 (NSC805149), carboplatin (NSC241240), KSQ-4279 (NSC840948), and staurosporine (NSC755774) were obtained from the National Cancer Institute (NCI) Developmental Therapeutics Program Chemical Repository (34). The FDA-approved anticancer drug set is available from the NCI Developmental Therapeutics Program. […] The stock solutions were prepared in dimethyl sulfoxide (DMSO, Sigma-Aldrich, St. Louis, MO, cat. D2650) at 800-fold the tested concentration and stored at -70 degrees C prior to their use. All drugs and investigational agents were tested over a range starting from a high concentration at or near the clinical Cmax and decreasing in half-log increments. If the clinical Cmax for an agent had not been determined, the highest concentration tested was 10 microM.
2.3 Cell Culture. All cells were maintained in an incubator at 37 degrees C and 5% CO2 with 95% humidity. The PDC lines were cultured according to standard operating procedures established by the NCI PDMR. All PDCs were thawed and cultured in Matrigel-coated flasks prepared with a working solution of 1X Ham's F-12 nutrient mix, without supplementation (Invitrogen, cat. 11765054), 100 U/mL penicillin-streptomycin (Invitrogen, cat. 15140122), and 2.5% Matrigel (Corning Inc., cat. 354248) for the first three passages. The 857933-349-R-J2-PDC line was cultured in 6C/Colon 1B media, which includes advanced DMEM/F-12 (Thermo Fisher Scientific, cat. 12634028), 10 mM HEPES (Thermo Fisher Scientific, cat. 15630080), 1X GlutaMAX supplement (Thermo Fisher Scientific, cat. 35050061), 0.1 mg/mL primocin (InvivoGen, cat. ant-pm-2), 10% defined fetal bovine serum, heat inactivated (HyClone Laboratories Inc., cat. SH30070.03HI), 50% L-WRN conditioned media (ATCC, cat. CRL-3276), 1.25 mM N-Acetyl-L-cysteine (Sigma-Aldrich, cat. A9165), 10 mM nicotinamide (Sigma-Aldrich, cat. N0636), 1X B-27 supplement (Thermo Fisher Scientific, cat. 17504044), 1X N-2 supplement (Thermo Fisher Scientific, cat. 17502048), 10 microM Y-27632 dihydrochloride (Tocris Bioscience, cat. 1254), and 50 ng/mL human EGF recombinant protein (Thermo Fisher Scientific, cat. PHG0311). The 485176-168-R4-J1-PDC line was cultured in Panc media, which includes all 6C/Colon 1B media components plus 100 ng/mL human FGF-10 (Thermo Fisher Scientific, cat. 100-26), 500 nM SB-431542 (Selleckchem, cat. S1067), and gastrin (Tocris, cat. 3006).
[…]

[1] = second compound 0.0316 µM, first compound 0.0316 µM
[2] = second compound 0.0316 µM, first compound 0.1 µM
[3] = second compound 0.0316 µM, first compound 0.316 µM
[4] = second compound 0.0316 µM, first compound 1 µM
[5] = second compound 0.0316 µM, first compound 3.16 µM
[6] = second compound 0.0316 µM, first compound 10 µM
[7] = second compound 0.1 µM, first compound 0.0316 µM
[8] = second compound 0.1 µM, first compound 0.1 µM
[9] = second compound 0.1 µM, first compound 0.316 µM
[10] = second compound 0.1 µM, first compound 1 µM
[11] = second compound 0.1 µM, first compound 3.16 µM
[12] = second compound 0.1 µM, first compound 10 µM
[13] = second compound 0.316 µM, first compound 0.0316 µM
[14] = second compound 0.316 µM, first compound 0.1 µM
[15] = second compound 0.316 µM, first compound 0.316 µM
[16] = second compound 0.316 µM, first compound 1 µM
[17] = second compound 0.316 µM, first compound 3.16 µM
[18] = second compound 0.316 µM, first compound 10 µM
[19] = second compound 1 µM, first compound 0.0316 µM
[20] = second compound 1 µM, first compound 0.1 µM
[21] = second compound 1 µM, first compound 0.316 µM
[22] = second compound 1 µM, first compound 1 µM
[23] = second compound 1 µM, first compound 3.16 µM
[24] = second compound 1 µM, first compound 10 µM
[25] = second compound 3.16 µM, first compound 0.0316 µM
[26] = second compound 3.16 µM, first compound 0.1 µM
[27] = second compound 3.16 µM, first compound 0.316 µM
[28] = second compound 3.16 µM, first compound 1 µM
[29] = second compound 3.16 µM, first compound 3.16 µM
[30] = second compound 3.16 µM, first compound 10 µM
[31] = second compound 10 µM, first compound 0.0316 µM
[32] = second compound 10 µM, first compound 0.1 µM
[33] = second compound 10 µM, first compound 0.316 µM
[34] = second compound 10 µM, first compound 1 µM
[35] = second compound 10 µM, first compound 3.16 µM
[36] = second compound 10 µM, first compound 10 µM
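Also: spheroids exposed to compounds for seven days before reading.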
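For viability, T/C in this document: percent viability relative to DMSO vehicle control taken as 100%.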

SMILES: CCCS(=O)(=O)Nc1ccc(F)c(C(=O)c2c[nH]c3ncc(-c4ccc(Cl)cc4)cc23)c1F + Cc1[nH]c2ccc(F)cc2c1-c1nc2c3cccnc3c3ncccc3c2[nH]1
- pIC50 (second compound 0.0316 µM): 6.25
- pIC50 (second compound 0.1 µM): 5.99
- pIC50 (second compound 0.316 µM): 5.96
- pIC50 (second compound 1 µM): 6.23
- pIC50 (second compound 3.16 µM): 6.53
- pIC50 (second compound 10 µM): 6.86
- viability, T/C [1]: 114%
- viability, T/C [2]: 93.4%
- viability, T/C [3]: 61.5%
- viability, T/C [4]: 37.4%
- viability, T/C [5]: 34.5%
- viability, T/C [6]: 36.7%
- viability, T/C [7]: 110%
- viability, T/C [8]: 88.5%
- viability, T/C [9]: 61.4%
- viability, T/C [10]: 52.4%
- viability, T/C [11]: 40.6%
- viability, T/C [12]: 32.3%
- viability, T/C [13]: 134%
- viability, T/C [14]: 95.6%
- viability, T/C [15]: 75.6%
- viability, T/C [16]: 43.8%
- viability, T/C [17]: 43.4%
- viability, T/C [18]: 29%
- viability, T/C [19]: 85.2%
- viability, T/C [20]: 90.3%
- viability, T/C [21]: 63.1%
- viability, T/C [22]: 41.5%
- viability, T/C [23]: 38.1%
- viability, T/C [24]: 37%
- viability, T/C [25]: 67.3%
- viability, T/C [26]: 52.8%
- viability, T/C [27]: 53.1%
- viability, T/C [28]: 45.2%
- viability, T/C [29]: 43%
- viability, T/C [30]: 41.9%
- viability, T/C [31]: 58.2%
- viability, T/C [32]: 50.8%
- viability, T/C [33]: 47.5%
- viability, T/C [34]: 50.3%
- viability, T/C [35]: 43.2%
- viability, T/C [36]: 49.9%

SMILES: COc1cccc2c1C(=O)c1c(O)c3c(c(O)c1C2=O)CC(O)(C(=O)CO)CC3OC1CC(N)C(O)C(C)O1 (centres undefined) + Cc1[nH]c2ccc(F)cc2c1-c1nc2c3cccnc3c3ncccc3c2[nH]1
- pIC50 (second compound 0.0316 µM): 6.32
- pIC50 (second compound 0.1 µM): 6.11
- pIC50 (second compound 0.316 µM): 6.19
- pIC50 (second compound 1 µM): 6.33
- pIC50 (second compound 3.16 µM): 6.46
- pIC50 (second compound 10 µM): 6.28
- viability, T/C [1]: 108%
- viability, T/C [2]: 70.2%
- viability, T/C [3]: 63.6%
- viability, T/C [4]: 37.3%
- viability, T/C [5]: 30%
- viability, T/C [6]: 34.7%
- viability, T/C [7]: 113%
- viability, T/C [8]: 65.6%
- viability, T/C [9]: 69.2%
- viability, T/C [10]: 53.4%
- viability, T/C [11]: 34%
- viability, T/C [12]: 35%
- viability, T/C [13]: 92%
- viability, T/C [14]: 67.9%
- viability, T/C [15]: 54%
- viability, T/C [16]: 55.5%
- viability, T/C [17]: 31.7%
- viability, T/C [18]: 35.9%
- viability, T/C [19]: 93.9%
- viability, T/C [20]: 65.7%
- viability, T/C [21]: 54.5%
- viability, T/C [22]: 46.3%
- viability, T/C [23]: 37.2%
- viability, T/C [24]: 36.1%
- viability, T/C [25]: 73.4%
- viability, T/C [26]: 65.6%
- viability, T/C [27]: 48.1%
- viability, T/C [28]: 45.8%
- viability, T/C [29]: 31.6%
- viability, T/C [30]: 37.8%
- viability, T/C [31]: 77.7%
- viability, T/C [32]: 64.9%
- viability, T/C [33]: 52.5%
- viability, T/C [34]: 48%
- viability, T/C [35]: 34.3%
- viability, T/C [36]: 30.4%
